≈ marks a conversion by molar mass, not a printed value. Entries after “also recorded” stand apart in the source; their conditions may differ. Like-named read-outs stand apart in the source and are kept apart here. Bounds are passed on as bounds.

These results are taken from article PMC8619593 (Pharmaceuticals, 2021).

One series addresses 3CLPro (Severe acute respiratory syndrome coronavirus 2, UniProt P0DTD1). The experiment in a line: 3CLPro FRET-based inhibition assay. The class given is biochemical, SARS-CoV-2. The settings on record: for IC50: FRET, 600 nM 3CLPro, 250 nM substrate; for inhibition at 100 µM: read-out: 3CLPro inhibition.
The subject of the next series is Vero E6 cells. Particulars: dilutions from 100 µM.
The test system of series [1] is SARS-CoV-2. The experiment in a line: Viral RNA reduction assay (ddPCR) in Vero E6 cells, MOI 0.01. Particulars: for SARS-CoV-2 RNA Reduction, activity at 50 µM: Vero E6 cells, MOI 0.01, tested at 50 µM; for EC50: Severe acute respiratory syndrome coronavirus 2, Vero C1008, 48 h, read-out: SARS-CoV-2 RNA Reduction EC50; for Therapeutic Index CC50/EC50: calculated from RNA reduction EC50 values.

On the set-up of series [2]: method as in PMID 32625627. Particulars: cited from earlier work.
In series [3] the target is T1, Human recombinant cathepsin B (exopeptidase activity) (Homo sapiens, UniProt P07858).
T1 construct: The Preparation of Catalytically Active Human Cathepsin B from Its Precursor Expressed in Escherichia coli; made in house; host or cells: Escherichia coli
The experiment in a line: Cathepsin B exopeptidase inhibition assay. Format: biochemical.

The subject of series [4] is Enterococcus faecalis 15376 VanA. The series can be described thus: Broth microdilution MIC. Particulars: Enterococcus faecalis, 15376VANA, 24 h. (In broth dilution the organism is exposed to a series of concentrations in liquid medium.)
The subject of series [5] is Staphylococcus epidermidis mecA. The experiment in a line: Broth microdilution MIC. Particulars: Staphylococcus epidermidis, 24 h.
Series [6] has as its system Enterococcus faecalis ATCC 29212. The series can be described thus: Broth microdilution MIC. Particulars: ATCC29212, 24 h.
The test system of series [7] is Staphylococcus epidermidis ATCC 35984 biofilm. The series can be described thus: Broth microdilution MIC. Particulars: Staphylococcus epidermidis, ATCC35984, 24 h.
Series [8] concerns Bacillus subtilis ATCC 6633. The series can be described thus: Broth microdilution MIC. Particulars: ATCC6633, 24 h.
Series [9] relates to SARS-CoV-2. The series can be described thus: microbe, parasite or virus in culture. Format: cell-based. Particulars: Severe acute respiratory syndrome coronavirus 2, Vero C1008, 72 h; Vero E6 cells, MOI 0.04, three days, XTT; read-out: SARS-CoV-2 CPE, EC50. For orientation: Tetrazolium dyes change colour on reduction, which living cells bring about.
The next series can be described thus: in vitro. The settings on record: African green monkey.
For series [10], the system named is Enterococcus faecalis ATCC 51299 VanB. The experiment in a line: Broth microdilution MIC. The settings on record: Enterococcus faecalis, ATCC51299, 24 h.
Series [11] concerns SARS-CoV-2. The series can be described thus: microbe, parasite or virus in culture. Particulars: Vero E6 cells, read-out: SARS-CoV-2 IFA, EC50. The class given is cell-based.
For series [12], the system named is Staphylococcus aureus MSSA ATCC 29213. The series can be described thus: Broth microdilution MIC. Particulars: Staphylococcus aureus, 24 h.
The target of series [13] is Human recombinant cathepsin L (Homo sapiens, UniProt P07711). The experiment in a line: Cathepsin L inhibition assay. Format: biochemical.
The test system of series [14] is Staphylococcus aureus MRSA ATCC 33591. The series can be described thus: Broth microdilution MIC. The settings on record: Staphylococcus aureus, 24 h.
Series [15] concerns SARS-CoV-2.
[16] abbreviates: pH 5.5, substrate Z-Phe-Arg-AMC; read-out: Cathepsin L IC50.
Where [17] appears, read: read-out: Exopeptidase Cathepsin B IC50; pH 5.0, substrate Abz-Gly-Ile-Val-Arg-Ala-Lys(Dnp)-OH.
Where [18] appears, read: read-out: Cathepsin L IC50; pH 5.5, substrate Z-Phe-Arg-AMC.

Human recombinant cathepsin L, sequence (P07711 114-333): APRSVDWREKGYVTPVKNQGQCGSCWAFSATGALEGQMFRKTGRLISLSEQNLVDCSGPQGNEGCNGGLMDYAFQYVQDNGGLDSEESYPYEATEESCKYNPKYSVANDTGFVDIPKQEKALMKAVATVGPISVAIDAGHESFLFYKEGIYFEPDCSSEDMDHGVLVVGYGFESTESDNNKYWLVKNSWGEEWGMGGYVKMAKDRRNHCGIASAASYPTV

Consider `CC(/C=C/C=C(C)/C=C/C(=O)O)=C\C=C\C=C(C)\C=C\C=C(C)\C=C\C(=O)O` (stereo in doubt) [Compound 1d, norbixin], for which, on 3CLPro, the IC50 (usually the midpoint of a concentration-inhibition curve) came to 36.1 ± 11.7 µM. In the series on Vero E6 cells, this molecule gave a CC50 greater than 100 µM. Also, the “SARS-CoV-2 RNA Reduction, activity at 50 µM” value was “completely inactive” in the series with SARS-CoV-2 [1] and “not active at 50 µM” in the series on SARS-CoV-2 [1] (listed as 1d (norbixin)).

On to `COC(=O)/C=C/C(C)=C\C=C\C(C)=C\C=C\C=C(C)\C=C\C=C(C)\C=C\C(=O)O` [Compound 1a, Bixin, reference compound], for which the inhibition – broadly, the relative decrease from the control value, in per cent – at 100 µM on 3CLPro worked out at 56%. In addition, the acceptable daily intake in series [2] is recorded as 6 mg/kg body weight. For the same molecule, the IC50 in series [3] (pH 5.0, substrate Abz-Gly-Ile-Val-Arg-Ala-Lys(Dnp)-OH; read-out: Exopeptidase Cathepsin B IC50) was 14.6 ± 1.71 µM; in series [13] (setting [16]), 41.9 ± 1.12 µM. In addition, the MIC in series [4], in [5], in [6], in series [7], in [8] and in series [10] was 512 µg/mL (≈ 1300 µM) in each case. The MIC in [12] and in series [14] was 512 µg/mL (≈ 1300 µM) each time. Besides, the EC50 (as a rule, the concentration that produces a half-maximal response) with SARS-CoV-2 [1] was found to be 5.9 ± 1.7 µM; with SARS-CoV-2 [9] it was 14 ± 3.5 µM; with SARS-CoV-2 [11] (Severe acute respiratory syndrome coronavirus 2, Vero C1008, 72 h, MOI 0.04, three days, dilutions from 100 µM) it was 28 ± 8.8 µM. In the series on SARS-CoV-2 [1], the “Therapeutic Index CC50/EC50” value is recorded as greater than 17. Moreover, the CC50 in the series “in vitro” is greater than 100 µM.

Turning to `COC(=O)/C(C)=C/C=C/C(C)=C/C=C/C=C(C)/C=C/C=C(\C)C(=O)O` [Compound 1b, crocetin monomethyl ester], the melting point – broadly, the temperature of the solid-liquid transition – is 204 to 205 °C. The inhibition at 100 µM on 3CLPro is 24%. Moreover, in the series on SARS-CoV-2 [1], the “SARS-CoV-2 RNA Reduction, activity at 50 µM” value was “did not show antiviral activity; also recorded: not active at 50 µM”.

Molecule `CC1=C(/C=C/C(C)=C/C=C/C(C)=C/C=C/C=C(C)/C=C/C=C(\C)C(=O)O)C(C)(C)CCC1` [Compound 1c, β-apo-8′-carotenoic acid] displayed a melting point of 194 to 195 °C. At 3CLPro, this molecule had an IC50 of 73 ± 7.1 µM. The IC50 in series [3] (read-out: Exopeptidase Cathepsin B IC50) came out at 21.3 ± 1.2 µM. Further, in the series on SARS-CoV-2 [1], the EC50 was found to be 15 ± 2 µM and the “Therapeutic Index CC50/EC50” value was greater than 6.7. Also, the EC50 in the series with SARS-CoV-2 [9] was 14 ± 2.2 µM. Besides, the CC50 at 3 days in “in vitro” is greater than 100 µM. Moreover, the EC50 in the series with SARS-CoV-2 [11] (Severe acute respiratory syndrome coronavirus 2, Vero C1008, MOI 0.04, * measurement from 50 µM) was 31 ± 7.9 µM. Moreover, the IC50 in series [13] (setting [16]) is 76 ± 1.74 µM.

In the case of `CC(=O)N[C@H]1[C@H](O[C@@H]2c3ccc(c(Cl)c3)Oc3cc4cc(c3O)Oc3ccc(cc3Cl)C[C@H]3NC(=O)[C@H](N)c5ccc(O)c(c5)Oc5cc(O)cc(c5)[C@H](NC3=O)C(=O)N[C@H]4C(=O)N[C@H]3C(=O)N[C@@H]2C(=O)N[C@H](C(=O)O)c2cc(O)cc(O)c2-c2cc3ccc2O)O[C@H](CO)[C@@H](O)[C@@H]1O` [Compound 2, Teicoplanin pseudoaglycone], the inhibition at 200 µM against 3CLPro (at 200 μM) turned out to be 34%. For the same molecule, the inhibition at 50 µM was found to be 7.8% in [3] (read-out: Exopeptidase Cathepsin B relative inhibition) and 0.04% in series [13] (read-out: Cathepsin L relative inhibition).

Turning to `COC(=O)/C=C/C(C)=C\C=C\C(C)=C\C=C\C=C(C)\C=C\C=C(C)\C=C\C(=O)N[C@H]1C(=O)N[C@@H]2Cc3ccc(c(Cl)c3)Oc3cc4cc(c3O)Oc3ccc(cc3Cl)[C@@H](O[C@@H]3O[C@H](CO)[C@@H](O)[C@H](O)[C@H]3NC(C)=O)[C@@H]3NC(=O)[C@H](NC(=O)[C@@H]4NC(=O)[C@@H](NC2=O)c2cc(O)cc(c2)Oc2cc1ccc2O)c1ccc(O)c(c1)-c1c(O)cc(O)cc1[C@@H](C(=O)O)NC3=O` [Compound 5a], the IC50 is 13.9 ± 1.73 µM against 3CLPro, 47.9 ± 1.07 µM in [3] (setting [17]) and 42.4 ± 1.86 µM in series [13] (setting [18]). Moreover, the MIC in series [4] was 16 µg/mL (≈ 9 µM); in [5], 16 µg/mL (≈ 9 µM); in series [6] it was 16 µg/mL (≈ 9 µM); in series [7] it was 0.5 µg/mL (≈ 0.281 µM); in series [8], 32 µg/mL (≈ 18 µM); in [10], 16 µg/mL (≈ 9 µM). Also, the MIC in [12] worked out at 16 µg/mL (≈ 9 µM); in series [14] it was 0.5 µg/mL (≈ 0.281 µM). Besides, the CC50 in the series on Vero E6 cells was greater than 100 µM. Besides, the “Therapeutic Index CC50/EC50” value with SARS-CoV-2 [15] is on record as greater than 17.

`COC(=O)/C(C)=C/C=C/C(C)=C/C=C/C=C(C)/C=C/C=C(\C)C(=O)N[C@H]1C(=O)N[C@@H]2Cc3ccc(c(Cl)c3)Oc3cc4cc(c3O)Oc3ccc(cc3Cl)[C@@H](O[C@@H]3O[C@H](CO)[C@@H](O)[C@H](O)[C@H]3NC(C)=O)[C@@H]3NC(=O)[C@H](NC(=O)[C@@H]4NC(=O)[C@@H](NC2=O)c2cc(O)cc(c2)Oc2cc1ccc2O)c1ccc(O)c(c1)-c1c(O)cc(O)cc1[C@@H](C(=O)O)NC3=O` [Compound 5b]: the results for the IC50 in [3] (setting [17]) and in series [13] (setting [18]) were 99.5 ± 1.16 µM and 103 ± 1.12 µM, respectively. Also, the MIC was 8 µg/mL (≈ 4.63 µM) in series [4]; 2 µg/mL (≈ 1.16 µM) in series [5]; 4 µg/mL (≈ 2.32 µM) in series [6]; 0.5 µg/mL (≈ 0.29 µM) in series [7]; 16 µg/mL (≈ 9.27 µM) in series [8]; 8 µg/mL (≈ 4.63 µM) in series [10]. Further, the MIC in series [12] was 8 µg/mL (≈ 4.63 µM); in [14], 2 µg/mL (≈ 1.16 µM). Moreover, the CC50 with Vero E6 cells is greater than 100 µM. In the series on SARS-CoV-2 [15], the “Therapeutic Index CC50/EC50” value was greater than 19.2.

As for `CC(=O)NC1C(OC2c3ccc(c(Cl)c3)Oc3cc4cc(c3O)Oc3ccc(cc3Cl)CC3NC(=O)C(NC(=O)C(C)=CC=CC(C)=CC=CC=C(C)C=CC=C(C)C=CC5=C(C)CCCC5(C)C)c5ccc(O)c(c5)Oc5cc(O)cc(c5)C(NC3=O)C(=O)NC4C(=O)NC3C(=O)NC2C(=O)NC(C(=O)O)c2cc(O)cc(O)c2-c2cc3ccc2O)OC(CO)C(O)C1O` (stereo not shown) [Compound 5c], the IC50 on 3CLPro was determined as 34.5 ± 12.5 µM; in [3] (setting [17]), 56.5 ± 1.06 µM; in series [13] (setting [18]), 47.1 ± 1.05 µM. For the same molecule, the MIC was 8 µg/mL (≈ 4.4 µM) in series [4]; 0.5 µg/mL (≈ 0.275 µM) in series [5]; 4 µg/mL (≈ 2.2 µM) in series [6]; 0.5 µg/mL (≈ 0.275 µM) in series [7]; 16 µg/mL (≈ 8.81 µM) in series [8]; 8 µg/mL (≈ 4.4 µM) in series [10]. Further, the MIC was determined as 8 µg/mL (≈ 4.4 µM) in series [12] and 1 µg/mL (≈ 0.55 µM) in [14]. In addition, the CC50 with Vero E6 cells is greater than 100 µM. Further, the “Therapeutic Index CC50/EC50” value with SARS-CoV-2 [15] is reported as greater than 22.7.

As for `COC(=O)/C=C/C(C)=C\C=C\C(C)=C\C=C\C=C(C)\C=C\C=C(C)\C=C\C(=O)N[C@H]1C(=O)N[C@H]2C(=O)N[C@H](C(=O)N[C@H]3C(=O)N[C@H]4C(=O)N[C@H](C(=O)N[C@H](C(=O)OC)c5cc(O)cc(O)c5-c5cc4ccc5O)[C@H](O)c4ccc(cc4)Oc4cc3cc(c4O)Oc3ccc(cc3)[C@H]2O)c2cc(O)c(C)c(c2)Oc2cc1ccc2O` [Compound 7], the MIC in series [4] amounted to 256 µg/mL (≈ 165 µM); in series [5] it was 64 µg/mL (≈ 41.3 µM); in series [6], 32 µg/mL (≈ 20.6 µM); in series [7] it was 64 µg/mL (≈ 41.3 µM); in series [8], 32 µg/mL (≈ 20.6 µM); in [10] it was 64 µg/mL (≈ 41.3 µM). The MIC in series [12] and in series [14] was 64 µg/mL (≈ 41.3 µM) each time.
